Assay results as given in ChEMBL document CHEMBL1201862, “PubChem BioAssay data set” (2004).
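Cells were grown in 96-well plates and exposed to each compound for 48 hours at five concentrations; endpoints were interpolated linearly between bracketing concentrations, or set to the highest concentration if not reached. GI50 = concentration required for 50% inhibition of growth.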 Calls of active or inactive are those of the source. Rule as the data show it: active = GI50 up to about 1.1 µM and inactive = higher.

Columns and labels:
Test in all cases: DTP human tumour cell line panel, 48 h
[1] = tested on: BT-549
[2] = tested on: OVCAR-8
[3] = tested on: HL-60
[4] = tested on: SF-268
[5] = tested on: OVCAR-4
[6] = tested on: KM12
[7] = tested on: HCT-116
[8] = tested on: UO-31
[9] = tested on: SN12C
[10] = tested on: OVCAR-5
[11] = tested on: COLO 205
[12] = tested on: NCI-H460
[13] = tested on: NCI-H23
[14] = tested on: A549
[15] = tested on: HCT-15
[16] = tested on: SW-620
[17] = tested on: HT-29
[18] = tested on: SNB-19
[19] = tested on: HOP-92
[20] = tested on: SF-539
[21] = tested on: EKVX
[22] = tested on: ACHN
[23] = tested on: IGROV-1
[24] = tested on: MDA-MB-435
[25] = tested on: SF-295
[26] = tested on: OVCAR-3
[27] = tested on: T47D
[28] = tested on: CAKI-1
[29] = tested on: K562
[30] = tested on: DU-145
[31] = tested on: NCI-H226
[32] = tested on: SK-MEL-5
[33] = tested on: HOP-62
[34] = tested on: NCI-H522
[35] = tested on: PC-3
[36] = tested on: U-251
[37] = tested on: Malme-3M
[38] = tested on: MOLT-4
[39] = tested on: MDA-MB-231
[40] = tested on: CCRF-CEM
[41] = tested on: SK-MEL-28
[42] = tested on: SK-MEL-2
[43] = tested on: SK-OV-3
[44] = tested on: TK-10
[45] = tested on: M14
[46] = tested on: RXF 393
[47] = tested on: UACC-62
[48] = tested on: LOX IMVI
[49] = tested on: Hs-578T
[50] = tested on: SR
[51] = tested on: MDA-N
[52] = tested on: SNB-75
[53] = tested on: NCI/ADR-RES
[54] = tested on: UACC-257
[55] = tested on: A498
[56] = tested on: RPMI-8226
[57] = tested on: 786-0

O=S(=O)(/N=C(\NO)Nc1ccc(Cl)cc1)c1ccc(-c2ccccn2)s1
GI50 [1]: 19.6 µM (inactive)
GI50 [2]: 69.5 µM (inactive)
GI50 [3]: 24 µM (inactive)
GI50 [4]: 35.7 µM (inactive)
GI50 [5]: 16.4 µM (inactive)
GI50 [6]: 86.9 µM (inactive)
GI50 [7]: 38.6 µM (inactive)
GI50 [8]: 80.2 µM (inactive)
GI50 [9]: 24.4 µM (inactive)
GI50 [10]: 74.1 µM (inactive)
GI50 [11]: 45.1 µM (inactive)
GI50 [12]: 87.3 µM (inactive)
GI50 [13]: 37.3 µM (inactive)
GI50 [14]: 61 µM (inactive)
GI50 [15]: 39.7 µM
GI50 [16]: 48.1 µM (inactive)
GI50 [17]: 82.8 µM (inactive)
GI50 [18]: > 100 µM (inactive)
GI50 [19]: 27.4 µM (inactive)
GI50 [20]: 41.4 µM (inactive)
GI50 [21]: 34.3 µM (inactive)
GI50 [22]: 35.6 µM (inactive)
GI50 [23]: 38.5 µM (inactive)
GI50 [24]: 27.5 µM (inactive)
GI50 [25]: 52.1 µM (inactive)
GI50 [26]: 4.03 µM (inactive)
GI50 [27]: 62.4 µM (inactive)
GI50 [28]: 6.25 µM (inactive)
GI50 [29]: 50.2 µM (inactive)
GI50 [30]: > 100 µM (inactive)
GI50 [31]: 90.8 µM (inactive)
GI50 [32]: 31.4 µM (inactive)
GI50 [33]: 52.1 µM (inactive)
GI50 [34]: 11.5 µM (inactive)
GI50 [35]: 38.8 µM (inactive)
GI50 [36]: 44.4 µM (inactive)
GI50 [37]: 19.6 µM (inactive)
GI50 [38]: 40.1 µM (inactive)
GI50 [39]: 49.7 µM (inactive)
GI50 [40]: 42.8 µM (inactive)
GI50 [41]: 69.2 µM (inactive)
GI50 [42]: 46 µM (inactive)
GI50 [43]: 56.1 µM (inactive)
GI50 [44]: 61.5 µM (inactive)
GI50 [45]: 56.1 µM (inactive)
GI50 [46]: 19 µM (inactive)
GI50 [47]: 44.2 µM (inactive)
GI50 [48]: 57.8 µM (inactive)
GI50 [49]: 28.8 µM (inactive)
GI50 [50]: > 100 µM (inactive)
GI50 [51]: 24.2 µM (inactive)
GI50 [52]: 50.7 µM (inactive)
GI50 [53]: 30.9 µM (inactive)
GI50 [54]: 34 µM (inactive)

CC1=NNC(=O)C1C1CC(c2c[nH]c3ccccc23)=NN(c2ccccc2)C1=O (centres undefined)
GI50 [1]: 86.1 µM (inactive)
GI50 [2]: > 100 µM (inactive)
GI50 [3]: 34.7 µM (inactive)
GI50 [4]: > 100 µM (inactive)
GI50 [6]: > 100 µM (inactive)
GI50 [7]: 34.7 µM (inactive)
GI50 [8]: > 100 µM (inactive)
GI50 [9]: 50.5 µM (inactive)
GI50 [10]: > 100 µM (inactive)
GI50 [11]: > 100 µM (inactive)
GI50 [12]: > 100 µM (inactive)
GI50 [13]: > 100 µM (inactive)
GI50 [14]: > 100 µM (inactive)
GI50 [15]: 37 µM
GI50 [16]: 42.3 µM (inactive)
GI50 [17]: > 100 µM (inactive)
GI50 [18]: > 100 µM (inactive)
GI50 [19]: > 100 µM (inactive)
GI50 [20]: 87.3 µM (inactive)
GI50 [21]: > 100 µM (inactive)
GI50 [22]: > 100 µM (inactive)
GI50 [23]: 1.62 µM (inactive)
GI50 [24]: 55.1 µM (inactive)
GI50 [25]: > 100 µM (inactive)
GI50 [26]: > 100 µM (inactive)
GI50 [27]: > 100 µM (inactive)
GI50 [28]: > 100 µM (inactive)
GI50 [29]: 35 µM (inactive)
GI50 [30]: > 100 µM (inactive)
GI50 [31]: > 100 µM (inactive)
GI50 [32]: > 100 µM (inactive)
GI50 [33]: > 100 µM (inactive)
GI50 [34]: 19.8 µM (inactive)
GI50 [55]: > 100 µM (inactive)
GI50 [35]: > 100 µM (inactive)
GI50 [36]: 87.5 µM (inactive)
GI50 [37]: > 100 µM (inactive)
GI50 [38]: 34 µM (inactive)
GI50 [39]: > 100 µM (inactive)
GI50 [40]: 28.1 µM (inactive)
GI50 [56]: 60.3 µM (inactive)
GI50 [41]: > 100 µM (inactive)
GI50 [42]: > 100 µM (inactive)
GI50 [43]: > 100 µM (inactive)
GI50 [44]: > 100 µM (inactive)
GI50 [45]: 66.4 µM (inactive)
GI50 [46]: > 100 µM (inactive)
GI50 [47]: > 100 µM (inactive)
GI50 [48]: 27.6 µM (inactive)
GI50 [49]: 29.8 µM (inactive)
GI50 [51]: 59.2 µM (inactive)
GI50 [57]: 24.6 µM (inactive)
GI50 [52]: > 100 µM (inactive)
GI50 [53]: 83.9 µM (inactive)
GI50 [54]: > 100 µM (inactive)
